This is an account of results in patent US10835532B2, “Muscarinic agonists as cognitive enhancers” (The University of Toledo, priority 2008, dated 2020).

In one series the test system is Alzheimer's subjects. Conditions: cited from earlier work.
Another series has as its system rats. In words: Place-visual cue attentional set-shifting task (cognitive flexibility). It counts as in vivo, rat. From the text: Various neurodegenerative diseases and psychiatric disorders are marked by alterations in brain M1 muscarinic cholinergic receptor function and cognitive deficits including working memory and cognitive flexibility impairments. Alleviating such deficits in conditions such as Alzheimer's disease and schizophrenia has been limited due to a lack of agonists with M1 muscarinic receptor subtype specificity. CDD-102A is a functionally-selective M1 agonist with lower activity at other muscarinic receptor subtypes. The present experiment investigated the effects of systemic treatment with CDD-102A on working memory and/or attentional set-shifting in rats. All testing occurred in a four-arm cross maze. Delayed (30 sec) spontaneous alternation in Long Evans rats was used as a test for working memory. […] A shift between a place and visual cue discrimination was used as an attentional set-shifting test. In this set of experiments, rats received either vehicle or CDD-102A (0.003-0.1 mg/kg) 30 minutes prior to testing in a place-visual cue set-shifting task. A treatment was administered either prior to the acquisition phase or prior to the shift phase. […] To examine cognitive flexibility, animals were evaluated for their ability to learn a place-visual cue task. Local cues in the maze arms included a black board in one arm and white board in the other arm. The cues were switched between the choice arms randomly across trials so the same cue was not always in the same location. Rats first learned to use a place strategy—always enter the same arm to receive a cereal reinforcement. Criterion was set at 10 consecutive correct trials. No treatment was given to rats prior to learning the place strategy test. The results are shown with the two bars on the left side of the graph in FIG. 2, showing that learning of a place-visual cue task. CDD-0102A, at a dose of 0.03 mg/kg decreased the number of trials to criterion (10 consecutive correct choices). Vehicle (N=3), CDD-0102A (N=4). The following day, rats had to inhibit using a place strategy and learn a visual cue strategy. That is, a rat had to choose the arm that contained a particular color cue (e.g., black). The criterion again was set at 10 consecutive correct trials. Rats received either saline (N=3) or CDD-0102A at 0.03 or 0.1 mg/kg (N=4) 30 minutes prior to testing. The results are shown in the middle of FIG. 2. […] Similar studies evaluated the ability of animals to shift from learning a visual cue task to a place strategy. Again criterion was set at 10 consecutive correct trials. Rats received either saline (N=3) or CDD-0102A at 0.03 or 0.1 mg/kg (N=4) 30 minutes prior to testing. The results are shown in the middle of FIG. 3. […] All testing was carried out in a four-arm cross-maze made of 0.6 cm thick black plastic was used for all behavioral testing. The maze was placed on a table that was 72 cm above the floor. Each arm was 55 cm long 10 cm wide. The height of the arm walls was 15.0 cm. Each arm contained a food well (3.2 cm diameter×1.6 cm high) that was 3 cm away from the end wall. Each food-well hole was 2.3 cm in diameter and 1.6 cm deep.

Another series relates to rat. In words: Salivation following i.p. injections in the rat. The series is classed as in vivo. From the text: FIG. 6 presents a graph comparing the effects of CDD-0102A on memory function and salivation following i.p. injections in the rat.
For another series, the system named is Long Evans rats. Kind of series: Delayed spontaneous alternation in four-arm cross maze (working memory). It counts as in vivo, rat. From the text: Various neurodegenerative diseases and psychiatric disorders are marked by alterations in brain M1 muscarinic cholinergic receptor function and cognitive deficits including working memory and cognitive flexibility impairments. Alleviating such deficits in conditions such as Alzheimer's disease and schizophrenia has been limited due to a lack of agonists with M1 muscarinic receptor subtype specificity. CDD-102A is a functionally-selective M1 agonist with lower activity at other muscarinic receptor subtypes. The present experiment investigated the effects of systemic treatment with CDD-102A on working memory and/or attentional set-shifting in rats. All testing occurred in a four-arm cross maze. Delayed (30 sec) spontaneous alternation in Long Evans rats was used as a test for working memory. […] A shift between a place and visual cue discrimination was used as an attentional set-shifting test. In this set of experiments, rats received either vehicle or CDD-102A (0.003-0.1 mg/kg) 30 minutes prior to testing in a place-visual cue set-shifting task. To evaluate the effects of muscarinic agonists on memory function in normal animals, rats were tested on a delayed spontaneous alternation task in a modified T-maze. The task takes advantage of rats' natural tendency to alternate. Animals were placed in a 4-arm maze shaped like a “+”. If a rat chose four different arms in four consecutive choices it was scored as an alternation. A delay was inserted between arm choices to help assess memory function. In the delay version of the task, CDD-0102A (a functionally selective M1 agonist) improved memory function in a dose dependent manner (see FIG. 1). All testing was carried out in a four-arm cross-maze made of 0.6 cm thick black plastic was used for all behavioral testing. The maze was placed on a table that was 72 cm above the floor. Each arm was 55 cm long 10 cm wide. The height of the arm walls was 15.0 cm. […] The number and sequence of arm entries was recorded. An arm entry was recorded when all four paws entered an arm. […]

Where [1] appears, read: rats, 0.03 or 0.1 mg/kg 30 minutes prior to testing, compared to controls, hydrochloride.
Setting [2] is: shift from place cue task to visual cue task, 0.03 and 0.1 mg/kg.
[3] abbreviates: shift from visual cue task to place cue task, 0.03 and 0.1 mg/kg.

Molecules are shown by their SMILES. “Also recorded” adds a separate entry of the source.

`CCCCCCOc1nsnc1C1=CCCN(C)C1` [xanomeline]: the “Side effects associated with activation of M3 receptors (salivation, diarrhea and profuse sweating)” value in the series on Alzheimer's subjects (Alzheimer's subjects, limited subject compliance) is reported as “produced unwanted side effects”. Also, the “Psychiatric symptoms such as hallucinations” value in the series with Alzheimer's subjects (phase II clinical trials in Alzheimer's subjects) is reported as “significantly improved”.

With `CCc1noc(C2CN=CNC2)n1.Cl` (stereo not drawn) [CDD-0102A, 5-(3-ethyl-1,2,4-oxadiazol-5-yl)-1,4,5,6-tetrahydropyrimidine hydrochloride], in the series on rats (rats, 0.003-0.1 mg/kg 30 minutes prior to the acquisition phase), the “Acquisition of a place or visual cue discrimination” value was “did not affect”. For the same molecule, the “Shift between a place and visual cue discrimination” value in the series with rats (rats, 0.03 and 0.1 mg/kg, 30 minutes prior to the shift phase) is on record as “significantly enhanced”. In the series with rats (setting [1]), the “Trials to criterion (10 consecutive correct choices), shift from place cue task to visual cue task” value is reported as “about half the trials; also recorded: decreased” and the “Trials to criterion (10 consecutive correct choices), shift from visual cue task to place cue task” value was “decreased; also recorded: about half the trials”. Also, the “Ability to initially inhibit a previously relevant strategy and maintain a new, relevant strategy once selected” value in the series on rats (rats, shift to the place or to the visual cue strategy) is “significantly increased”. Also, in the series on rats (setting [2]), the “Number of never-reinforced errors” value is listed as “decreased”, the “Number of perseverative errors” value was “decreased” and the “Number of regressive errors” value was “decreased”. For the same molecule, in the series with rats (setting [3]), the “Number of never-reinforced errors” value is “no significant impact”, the “Number of perseverative errors” value is reported as “decreased” and the “Number of regressive errors” value was “decreased”. For the same molecule, in the series with rat, the “Lowest dose producing salivation” value came to 0.3 mg/kg; the “Separation between the dose enhancing place-visual cue learning (0.03 mg/kg i.p.) and the lowest dose producing salivation” value is on record as “ten-fold lower”. Besides, in the series with Long Evans rats (normal rats, i.p., dose dependent (FIG. 1)), the “Memory function in the delay version of the spontaneous alternation task” value is “improved”. In addition, in the series on Long Evans rats (rats, 0.1, 0.3 and 1 mg/kg i.p. 30 minutes before testing, 30 sec delay, listed as CDD-102A, hydrochloride), the “Delayed spontaneous alternation performance” value is “significantly enhanced”. In the series on Long Evans rats (rats, all the doses tested, i.p.), the “Number of arm entries (locomotor activity)” value was “did not alter”.
